# Square brackets hold non-standard residues; d marks the D form. Ends that are not written are not given here. Vat = not defined here
# Experiments:
# HLA-A2.1 = HLA-A2.1 cell surface expression in RMA-S-A2.1 cells (FACS); type: cell-based, human; conditions: for Increase of HLA-A2.1-specific fluorescence intensity: RMA-S-A2.1 cells, 50 micromoles per liter peptide, 37 C overnight, FITC anti-HLA-A2.1
# Description: Cells were pooled from the duplicate cultures and about 1×10^6 cells were incubated with 2 micrograms per milliliter fluorescein isothiocyanate-labelled anti-HLA-A2.1 antibody (catalogue number 32294x, PharMingen) at 4° C. for 30 min. Fluorescence-activated cell sorting (FACS) analysis was performed on a FACScan (Becton-Dickinson). About ten thousand events were collected and analyzed by CELLQuest software (version 1.2.2, BD Biosciences).
# [1] = system: murine EL-4 lymphoma cells; test: Chromium release assay: CTL from immunized C57BL/6 mice against p4-contacted EL-4 cells; type: cell-based, mouse; conditions: C57BL/6 mice immunized with p4 with OVAp; p4-contacted EL-4 targets
# Source text: Groups consisting each of five C57BL/6 mice were immunized with either 30 micrograms of the test peptide p4 with 30 micrograms of the co-stimulatory factor OVAp, or with 30 micrograms of the test peptide p5 delivered in 30 micrograms DOTAP liposomes. Two weeks after the first immunization, mice in each respective group were immunized a second time with the appropriate test peptide formulation (p4 plus OVAp, or p5 in DOTAP liposomes) that had been used in the initial immunization. Two weeks after the second immunization, 5×10^6 spleen cells were removed from a pool of two to four mice, established in vitro, and re-stimulated with the appropriate test peptide (p4 or p5) in vitro for seven days. The cytotoxic T-lymphocytes thus obtained were tested using a standard chromium release assay for their ability as effector cells to lyse target cells. The target cells consisted of murine EL-4 lymphoma cells, which display the major histocompatibility complex class I molecules H-2K^b and H-2D^b, and that had been contacted with the test peptide p4 and treated overnight with 50 units per milliliter interferon-gamma. Effector cells (E) and target cells (T) were mixed at different E/T ratios for 4 hours. The specific lysis was determined by the following formula: [(experimental release−spontaneous release)/(maximal release−spontaneous release)]×100.
# [2] = system: P815 murine mastocytoma cells; test: Chromium release assay: CTL from peptide-immunized BALB/c mice against peptide-contacted P815 cells; type: cell-based, mouse; conditions: for CTL response cytotoxic to target cells displaying the peptide (specific lysis): BALB/c mice immunized with 30 micrograms peptide + OVAp in DOTAP liposomes, targets contacted with same peptide and interferon-gamma
# Description: The test peptides p 1 and p2 were evaluated for the ability to elicit in mice a cytotoxic T-lymphocyte response to naturally presented immunoglobulin E peptides. Eight-week old BALB/c mice in groups of four were each immunized with 30 micrograms of one of the test peptides p1 or p2, together with 30 micrograms of the co-stimulatory factor OVAp (ovalbumin peptide) (Schimokevitz, 1984, J. Immunol., 133:2067), an oligopeptide consisting of the sequence […](SEQ ID NO. 3), in N-[1-(-2,3-dioleoyloxy)propyl]-N,N,N-trimethylammonium methylsulfate (DOTAP, purchased from Boehringer Mannheim, Indianapolis, Ind.) cationic liposomes. Two weeks after the first immunization, mice in each respective group were immunized a second time with the appropriate test peptide (p1 or p2) that had been used in the initial immunization. Two weeks after the second immunization, 5×10^6 spleen cells were removed from a pool of two to four mice, established in vitro, and re-stimulated with the respective test peptide in vitro for seven days. The cytotoxic T-lymphocytes thus obtained were tested using a standard chromium release assay (Colligan et al. 2002, Current Protocols in Immunology, 3.11) for their ability as effector cells to lyse target cells. The target cells consisted of P815 murine mastocytoma cells that had been contacted with the appropriate test peptide (p1 or p2) and treated overnight with 50 units per milliliter interferon-gamma to facilitate processing of the test peptide. Effector cells (E) and target cells (T) were mixed at different E/T ratios for 4 hours. The specific lysis was determined by the following formula: [(experimental release−spontaneous release)/(maximal release−spontaneous release)]×100.
# The test peptide p3 was similarly evaluated for the ability to elicit a cytotoxic T-lymphocyte response in mice to naturally processed and presented immunoglobulin E peptides. […] The specific lysis was determined by the following formula: [(experimental release−spontaneous release)/(maximal release−spontaneous release)]×100.
# [3] = system: LPS and IL-4 stimulated B-lymphocyte cultures; test: Polyclonal IgE production by LPS and IL-4 stimulated B-lymphocyte cultures with CTL (ELISA); type: cell-based, mouse; conditions: CTL from mice immunized with only OVAp in DOTAP liposomes
# Description: In a second experiment, BALB/c splenic B-lymphocytes were enriched by magnetic beads coated with an antibody against the B-lymphocyte-specific cell surface antigen B220. To assess CTL effects on polyclonal IgE production, 3×10^5 normal B-lymphocytes were added to either 3×10^6 p3-activated spleen cells from mice immunized with test peptide p3 together with the co-stimulatory factor OVAp in DOTAP liposomes, or to 3×10^6 p3-activated spleen cells from mice immunized with only the co-stimulatory factor OVAp in DOTAP liposomes as a control. The co-cultures were then stimulated with 20 micrograms per milliliter lipopolysaccharide (LPS) and 250 units per milliliter murine recombinant interleukin-4 (IL-4). Two days later, the culture supernatants were harvested. Immunoglobulin E levels were determined using a commercial double-sandwich ELISA assay (catalogue number 2655KI, PharMingen).
# KLH-specific IgE = test: Allergen-specific (KLH-specific) IgE in vivo by passive cutaneous anaphylaxis (PCA); design: species or system mouse; conditions: BALB/c mice immunized with only OVAp in liposomes, KLH/alum challenge; pooled blood
# Description: In a third experiment, the effect of immunoglobulin E peptide immunization on production of allergen-specific IgE in vivo was determined. Adult BALB/c mice (5/group) were immunized twice with either the test peptide p3 or the test peptide p1, together with the co-stimulatory factor OVAp in DOTAP liposomes, or with only the co-stimulatory factor OVAp in DOTAP liposomes. Mice immunized with saline served as control. Seven days after the second immunization, mice were challenged with 1 microgram keyhole limpet hemocyanin (KLH) in 2 milligrams alum intraperitoneally four times at a 10 day interval, and the allergen-specific (KLH-specific) IgE in pooled blood was then determined by passive cutaneous anaphylaxis (PCA) reaction. […] Reduction of allergen-specific PCA correlated directly with the elicitation of IgE peptide-specific cytotoxic T-lymphocytes in vitro (as depicted in FIG. 3B).
substance,measurement,setting,value
TQSPSVFPL [539.10],Increase of HLA-A2.1-specific fluorescence intensity,HLA-A2.1,one log
WLSDRTYTC [539.11],Increase of HLA-A2.1-specific fluorescence intensity,HLA-A2.1,one log
Ile Gln Leu Tyr Cys Phe Ile Try Gly His Ile Leu Asn Asp Val Ser Val (IQLYCFIYGHILNDVSV; Mouse (Mus musculus)) [p4],immunoglobulin E-specific CTL response,[1],comparable levels of immunoglobulin E-specific CTL response
LYCFIYGHI [p1],CTL response cytotoxic to target cells displaying the peptide (specific lysis),[2],able to elicit a CTL response
QLPDARHST [539.9],Increase of HLA-A2.1-specific fluorescence intensity,HLA-A2.1,one log
"ISQAVHAAHAEINEAGR [OVAp, co-stimulatory factor]",immunoglobulin E production in vitro,[3],did not decrease immunoglobulin E production
same,CTL response against p3-treated P815 target cells,[2]; BALB/c mice immunized with OVAp in liposomes only,did not induce a substantial CTL-response
same,KLH-specific IgE PCA titre,KLH-specific IgE,160
LLTVSGAWA [539.8],effect of exogenous human beta-2 microglobulin on surface expression of HLA-A2.1,HLA-A2.1; RMA-S-A2.1 cells incubated with peptide in presence versus absence of human beta-2 microglobulin,did not substantially enhance surface expression of HLA-A2.1
same,Increase of HLA-A2.1-specific fluorescence intensity,HLA-A2.1,one log
"IYGHILNDV [p2, lie Tyr Gly His li0e Leu Asn Asp Val]",CTL response cytotoxic to target cells displaying the peptide (specific lysis),[2],able to elicit a CTL response
Trp Val Asp Asn Lys Thr Phe Ser Vat (WVDNKTFS[Vat]; reading uncertain; also: printed as Trp Val Asp Asn Lys Thr Phe Ser Vat) [539.12],Increase of HLA-A2.1-specific fluorescence intensity,HLA-A2.1,one log

# Reference: patent US7604955B2, “Immunoglobulin E vaccines and methods of use thereof” (priority 2001, dated 2009)
